Data as given in patent US12030878B2 (BRISTOL-MYERS SQUIBB COMPANY, priority 2017, dated 2024).

Tests used:
Type in all cases: cell-based
human TLR7 = biological target: T1, human TLR7 (Homo sapiens, UniProt Q9NYK1); test: TLR7 inhibition reporter assay (HEK-Blue SEAP); conditions: HEK-Blue cells overexpressing human TLR7, stimulated with gardiquimod 7.5 μM, 22 hour incubation
T1 construct: host or cells: HEK-Blue cells
T1 sequence (Q9NYK1 27-1049): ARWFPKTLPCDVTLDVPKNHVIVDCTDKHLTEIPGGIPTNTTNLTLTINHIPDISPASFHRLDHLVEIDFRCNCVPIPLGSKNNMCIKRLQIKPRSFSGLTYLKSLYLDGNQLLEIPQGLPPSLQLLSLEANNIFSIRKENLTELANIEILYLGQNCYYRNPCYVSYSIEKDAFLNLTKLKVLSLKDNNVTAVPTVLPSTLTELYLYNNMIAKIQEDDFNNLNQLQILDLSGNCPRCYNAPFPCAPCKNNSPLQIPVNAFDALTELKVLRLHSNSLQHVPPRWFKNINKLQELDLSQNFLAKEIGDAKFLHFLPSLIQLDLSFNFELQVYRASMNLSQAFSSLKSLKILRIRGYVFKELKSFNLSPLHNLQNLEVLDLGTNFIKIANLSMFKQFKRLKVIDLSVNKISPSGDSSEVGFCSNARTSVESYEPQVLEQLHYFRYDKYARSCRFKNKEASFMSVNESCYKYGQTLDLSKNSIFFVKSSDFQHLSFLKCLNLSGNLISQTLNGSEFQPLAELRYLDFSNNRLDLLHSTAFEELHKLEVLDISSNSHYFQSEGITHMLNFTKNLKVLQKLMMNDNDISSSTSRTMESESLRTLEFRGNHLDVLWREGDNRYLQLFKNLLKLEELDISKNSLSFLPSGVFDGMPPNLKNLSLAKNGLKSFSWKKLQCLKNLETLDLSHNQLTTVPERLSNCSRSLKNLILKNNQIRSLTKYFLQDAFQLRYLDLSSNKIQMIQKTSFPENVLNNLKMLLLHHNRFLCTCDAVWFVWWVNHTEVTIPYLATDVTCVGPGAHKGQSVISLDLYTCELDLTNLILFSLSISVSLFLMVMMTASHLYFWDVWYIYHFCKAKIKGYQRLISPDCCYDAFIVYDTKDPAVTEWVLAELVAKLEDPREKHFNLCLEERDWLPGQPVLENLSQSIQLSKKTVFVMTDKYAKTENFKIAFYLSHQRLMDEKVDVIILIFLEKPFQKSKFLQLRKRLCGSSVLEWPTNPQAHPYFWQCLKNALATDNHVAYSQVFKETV
Experimental: (§1) TLR7/8/9 Inhibition Reporter Assays
(§2) HEK-Blue™-cells (Invivogen) overexpressing human TLR7, TLR8 or TLR9 receptors were used for screening inhibitors of these receptors using an inducible SEAP (secreted embryonic alkaline phosphatase) reporter gene under the control of the IFN-β minimal promoter fused to five NF-κB and AP-1-binding sites. Briefly, cells are seeded into Greiner 384 well plates (15000 cells per well for TLR7, 20.000 for TLR8 and 25,000 for TLR9) and then treated with test compounds in DMSO to yield a final dose response concentration range of 0.05 nM-50 μM. After a 30 minute compound pre-treatment at room temperature, the cells are then stimulated with a TLR7 ligand (gardiquimod at a final concentration of 7.5 μM), TLR8 ligand (R848 at a final concentration of 15.9 μM) or TLR9 ligand (ODN2006 at a final concentration of 5 nM) to activate NF-κB and AP-1 which induce the production of SEAP. After a 22 hour incubation at 37° C., 5% CO2, SEAP levels are determined with the addition of HEK-Blue™ Detection reagent (Invivogen), a cell culture medium that allows for detection of SEAP, according to manufacturer's specifications. The percent inhibition is determined as the % reduction in the HEK-Blue signal present in wells treated with agonist plus DMSO alone compared to wells treated with a known inhibitor.

human TLR8 = biological target: T2, human TLR8 (Homo sapiens, UniProt Q9NR97); test: TLR8 inhibition reporter assay (HEK-Blue SEAP); conditions: HEK-Blue cells overexpressing human TLR8, stimulated with R848 15.9 μM, 22 hour incubation
T2 construct: host or cells: HEK-Blue cells
T2 sequence (Q9NR97 27-1041): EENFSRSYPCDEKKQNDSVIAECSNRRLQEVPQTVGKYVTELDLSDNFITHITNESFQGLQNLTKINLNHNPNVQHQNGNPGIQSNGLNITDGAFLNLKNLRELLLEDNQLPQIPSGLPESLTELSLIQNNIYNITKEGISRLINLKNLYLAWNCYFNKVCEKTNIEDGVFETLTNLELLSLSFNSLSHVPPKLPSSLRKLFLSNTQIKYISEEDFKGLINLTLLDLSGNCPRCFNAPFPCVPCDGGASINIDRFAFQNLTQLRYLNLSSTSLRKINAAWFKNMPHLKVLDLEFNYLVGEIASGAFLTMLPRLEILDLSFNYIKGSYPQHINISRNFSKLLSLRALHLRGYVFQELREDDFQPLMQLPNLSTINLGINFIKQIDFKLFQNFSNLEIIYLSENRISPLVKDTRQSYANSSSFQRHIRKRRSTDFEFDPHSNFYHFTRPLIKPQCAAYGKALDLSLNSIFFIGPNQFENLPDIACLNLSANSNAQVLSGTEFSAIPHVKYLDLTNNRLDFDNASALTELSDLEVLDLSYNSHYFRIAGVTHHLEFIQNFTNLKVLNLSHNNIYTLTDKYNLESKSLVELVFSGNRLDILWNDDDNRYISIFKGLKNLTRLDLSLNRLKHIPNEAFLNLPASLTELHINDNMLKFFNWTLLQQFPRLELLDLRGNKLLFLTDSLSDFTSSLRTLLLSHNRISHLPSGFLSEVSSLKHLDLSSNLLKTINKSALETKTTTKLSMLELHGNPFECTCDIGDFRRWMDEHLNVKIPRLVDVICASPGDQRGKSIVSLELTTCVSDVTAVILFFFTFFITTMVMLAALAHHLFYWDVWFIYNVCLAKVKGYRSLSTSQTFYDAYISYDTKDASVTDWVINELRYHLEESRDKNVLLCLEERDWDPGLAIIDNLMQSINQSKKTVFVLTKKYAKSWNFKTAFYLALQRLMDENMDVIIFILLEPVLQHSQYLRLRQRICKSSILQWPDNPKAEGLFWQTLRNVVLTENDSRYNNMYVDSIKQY
Experimental: as §1, §2

human TLR9 = biological target: T3, human TLR9 (Homo sapiens, UniProt Q9NR96); test: TLR9 inhibition reporter assay (HEK-Blue SEAP); conditions: HEK-Blue cells overexpressing human TLR9, stimulated with ODN2006 5 nM, 22 hour incubation
T3 construct: host or cells: HEK-Blue cells
T3 sequence (Q9NR96 26-1032): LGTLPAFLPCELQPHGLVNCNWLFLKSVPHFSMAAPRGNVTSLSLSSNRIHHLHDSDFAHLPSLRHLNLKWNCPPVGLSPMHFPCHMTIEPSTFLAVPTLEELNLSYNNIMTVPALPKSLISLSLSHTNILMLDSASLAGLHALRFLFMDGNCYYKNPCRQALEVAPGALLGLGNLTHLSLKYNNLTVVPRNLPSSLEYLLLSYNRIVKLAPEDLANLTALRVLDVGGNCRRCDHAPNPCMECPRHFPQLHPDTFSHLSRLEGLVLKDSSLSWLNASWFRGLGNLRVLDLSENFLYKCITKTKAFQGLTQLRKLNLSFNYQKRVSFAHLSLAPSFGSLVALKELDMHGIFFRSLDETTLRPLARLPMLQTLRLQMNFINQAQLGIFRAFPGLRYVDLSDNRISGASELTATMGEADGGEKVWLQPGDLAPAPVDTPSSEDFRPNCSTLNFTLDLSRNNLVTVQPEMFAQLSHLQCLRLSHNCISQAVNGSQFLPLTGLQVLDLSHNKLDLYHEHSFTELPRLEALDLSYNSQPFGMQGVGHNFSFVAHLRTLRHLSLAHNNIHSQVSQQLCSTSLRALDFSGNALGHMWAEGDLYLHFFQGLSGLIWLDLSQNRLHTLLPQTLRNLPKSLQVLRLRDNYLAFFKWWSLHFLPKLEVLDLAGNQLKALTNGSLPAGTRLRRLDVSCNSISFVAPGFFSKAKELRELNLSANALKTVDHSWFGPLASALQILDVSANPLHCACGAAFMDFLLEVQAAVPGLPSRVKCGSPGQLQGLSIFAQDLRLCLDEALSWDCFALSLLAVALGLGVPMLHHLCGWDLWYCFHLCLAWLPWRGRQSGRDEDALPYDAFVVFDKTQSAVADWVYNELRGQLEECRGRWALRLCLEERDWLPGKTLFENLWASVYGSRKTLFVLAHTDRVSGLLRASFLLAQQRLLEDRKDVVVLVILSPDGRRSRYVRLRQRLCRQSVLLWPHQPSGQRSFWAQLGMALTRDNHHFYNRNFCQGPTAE
Experimental: as §1, §2

SMILES | IC50 (human TLR7) [nM] | IC50 (human TLR8) [nM] | IC50 (human TLR9) [µM]
COc1ccc(-c2[nH]c3ccc(OCC(=O)NCC4(O)CCN(C)CC4)cc3c2C(C)C)cc1OC [Example 133, 2-((2-(3,4-dimethoxyphenyl)-3-isopropyl-1H-indol-5-yl)oxy)-N-((4-hydroxy-1-methylpiperidin-4-yl)methyl)acetamide] | 557 | 19.7 | 0.861
COc1ccc(-c2[nH]c3ccc(OCC(=O)N[C@H]4CCNC4)cc3c2C(C)C)cc1OC [Example 134, (S)-2-((2-(3,4-dimethoxyphenyl)-3-isopropyl-1H-indol-5-yl)oxy)-N-(pyrrolidin-3-yl)acetamide] | 98 | 11.6 | 0.359
Cc1cc(-c2[nH]c3ccc(OC4CCN(C5CCOCC5)CC4)cc3c2C(C)C)cn(C)c1=O [Example 39, 5-(3-isopropyl-5-((1-(tetrahydro-2H-pyran-4-yl)piperidin-4-yl)oxy)-1H-indol-2-yl)-1,3-dimethylpyridin-2(1H)-one] | 2.5 | 0.5 | 8.19
COc1ccc(-c2[nH]c3ccc(OCC(=O)NC4CN5CCC4CC5)cc3c2C(C)C)cc1OC (centres unmarked) [Example 125, 2-((2-(3,4-dimethoxyphenyl)-3-isopropyl-1H-indol-5-yl)oxy)-N-((1s,4s)-quinuclidin-3-yl)acetamide] | 19 | 44.4 | 6.33
Cc1c(-c2[nH]c3ccc(OCC4CCN(C5COC5)CC4)cc3c2C(C)C)cn2cnnc2c1C [Example 52, 6-(3-isopropyl-5-((1-(oxetan-3-yl)piperidin-4-yl)methoxy)-1H-indol-2-yl)-7,8-dimethyl-[1,2,4]triazolo[4,3-a]pyridine] | 6.1 | 5.8 | 7.81
Cc1c(-c2[nH]c3ccc(OC4CCN(C5COC5)CC4)cc3c2C(C)C)cn2cnnc2c1C [Example 56, 6-(3-isopropyl-5-((1-(oxetan-3-yl)piperidin-4-yl)oxy)-1H-indol-2-yl)-7,8-dimethyl-[1,2,4]triazolo[4,3-a]pyridine] | 26.3 | 19.4 | 19.3
Cc1cc(-c2[nH]c3ccc(OC4CCNCC4)cc3c2C(C)C)ccn1 [Example 164, 3-isopropyl-2-(2-methylpyridin-4-yl)-5-(piperidin-4-yloxy)-1H-indole] | 11.2 | 1.1 | 1.08
Cc1cc(-c2[nH]c3ccc(O[C@H]4CCCNC4)cc3c2C(C)C)cn(C)c1=O [Example 8, (S)-5-(3-isopropyl-5-(piperidin-3-yloxy)-1H-indol-2-yl)-1,3-dimethylpyridin-2(1H)-one] | 6.6 | 13.9 | 3.52
Cc1cc(-c2[nH]c3ccc(OCC4CCCN(C)C4)cc3c2C(C)C)ccn1 (centres unmarked) [Example 181, 3-isopropyl-5-((1-methylpiperidin-3-yl)methoxy)-2-(2-methylpyridin-4-yl)-1H-indole] | 24.2 | 5.9 | 0.915
Cc1cc(-c2[nH]c3ccc(OCc4c[nH]cn4)cc3c2C(C)C)ccn1 [Example 176, 5-((1H-imidazol-4-yl)methoxy)-3-isopropyl-2-(2-methylpyridin-4-yl)-1H-indole] |  |  | 13.6
CNC(=O)CN1CCC(Oc2ccc3[nH]c(-c4cn(C)c(=O)c(C)c4C)c(C(C)C)c3c2)CC1 [Example 115, 2-(4-((3-isopropyl-2-(1,4,5-trimethyl-6-oxo-1,6-dihydropyridin-3-yl)-1H-indol-5-yl)oxy)piperidin-1-yl)-N-methylacetamide] | 39.7 | 8.6 | 
Cc1cc(-c2[nH]c3ccc(OC4CCN(CCC(F)(F)F)CC4)cc3c2C(C)C)ccn1 [Example 187, 3-isopropyl-2-(2-methylpyridin-4-yl)-5-((1-(3,3,3-trifluoropropyl)piperidin-4-yl)oxy)-1H-indole] | 257 | 3.9 | 
COc1cc(-c2[nH]c3ccc(OC4CCN(CC(=O)N(C)C)CC4)cc3c2C(C)C)cn2ncnc12 [Example 93, 2-(4-((3-isopropyl-2-(8-methoxy-[1,2,4]triazolo[1,5-a]pyridin-6-yl)-1H-indol-5-yl)oxy)piperidin-1-yl)-N,N-dimethylacetamide] |  | 2.6 | 1.81
Cc1cc(-c2[nH]c3ccc(OCc4c[nH]cn4)cc3c2C(C)C)ccn1 [Example 178, 5-((1H-imidazol-4-yl)methoxy)-3-isopropyl-2-(2-methylpyridin-4-yl)-1H-indole] |  |  | > 50
